Measured values as given in PMC9916658, “Design and Synthesis of New Quinazolin-4-one Derivatives with Negative mGlu7 Receptor Modulation Activity and Antipsychotic-Like Properties” (International Journal of Molecular Sciences, 2023).

Assays:
[1] = tested on: animal models of schizophrenia; settings: cited from earlier work
CYP1A2 = biological target: T1, CYP1A2 (Homo sapiens, UniProt P05177); experiment: CYP inhibition assay, recombinant enzyme, fluorescence; format: in vitro ADME; settings: test concentrations 1.1, 3.3 and 10 μM; read-out: Cytochrome P450 1A2 IC50
T1 construct: purchased BD Biosciences
T1 sequence (P05177 1-516): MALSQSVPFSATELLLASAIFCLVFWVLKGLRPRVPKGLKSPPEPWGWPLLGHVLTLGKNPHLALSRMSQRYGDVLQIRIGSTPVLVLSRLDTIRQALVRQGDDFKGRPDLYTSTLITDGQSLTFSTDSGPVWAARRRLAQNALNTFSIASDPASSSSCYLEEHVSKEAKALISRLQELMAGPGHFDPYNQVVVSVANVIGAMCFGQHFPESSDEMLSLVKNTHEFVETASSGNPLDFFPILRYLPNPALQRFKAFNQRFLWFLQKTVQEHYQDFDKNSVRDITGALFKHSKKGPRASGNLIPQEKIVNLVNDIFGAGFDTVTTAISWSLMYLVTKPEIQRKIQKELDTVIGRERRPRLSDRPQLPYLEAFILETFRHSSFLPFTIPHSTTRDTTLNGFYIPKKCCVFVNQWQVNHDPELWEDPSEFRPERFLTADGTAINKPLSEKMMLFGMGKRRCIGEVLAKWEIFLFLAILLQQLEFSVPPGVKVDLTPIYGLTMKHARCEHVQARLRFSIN
Experimental: CYP inhibition was performed with the recombinant enzymes CYP1A2, CYP2B6, CYP2C9, CYP2C19, CYP2D6, and CYP3A4 obtained from BD Biosciences. Compounds for CYP inhibition testing were prepared as 10 mM stock solutions in DMSO. Isoform-specific substrates were incubated at 37 °C individually with P450 enzymes (Table 5) and a range of test compound concentrations (1.1, 3.3 and 10 μM) in duplicate. Each isoform was tested separately with one reference compound, a known positive control inhibitor. During preincubation, the 96-well black plates were scanned with a fluorescence plate reader to eliminate false results originating from the autofluorescence of the test compounds. At the end of the incubation, product formation was monitored with fluorescence detection. A decrease in the formation of the metabolite compared to the “no inhibition” control samples was used to calculate the IC50 value.

[2] = tested on: recognition index in mice; experiment: Novel object recognition test; format: in vivo
Experimental: This procedure was adapted from and performed as described in a previous paper. Habituation, training and test trials were performed in a black plastic rectangular arena (40 × 30 × 35 cm) illuminated with a light intensity of 335 lux. During the habituation trial (2 consecutive days), each animal was allowed to explore the arena for 10 min. The next day, during the training trial (T1), mice were placed in the arena and were presented with two identical objects (red glass cylinders; 6.5 cm in diameter and 4.5 cm high) for 5 min. After 1 h, animals were placed back into the arena for a 5 min test trial, during which one of the previously presented familiar objects was replaced with a novel object (a transparent glass elongated sphere-like object with an orange cap; 5.5 cm in diameter and 8.5 cm high). Time spent exploring (i.e., sniffing or touching) the familiar (Tfamiliar) and novel (Tnovel) objects was measured by a trained observer, and the recognition index (%) was calculated for each mouse [(Tnovel − Tfamiliar)/(Tfamiliar + Tnovel)] “×” 100.

[3] = tested on: DOI-induced head twitches in mice; experiment: DOI-induced head twitch test; format: in vivo
Experimental: The experiments were performed according to the procedure described in our previous studies. Briefly, to habituate mice to the experimental environment, each animal was transferred to a 12 cm (diameter) × 20 cm (height) glass cage lined with sawdust 30 min before treatment. Test compounds were administered intraperitoneally (i.p.) at doses of 2.5, 5, and 10 mg/kg body weight 60 min before the test was performed. The head twitch response (HTR) in mice was induced using DOI (2.5 mg/kg, i.p.). Immediately after treatment, the number of head twitches was counted during a 20 min session.

[4] = tested on: prepulse inhibition in rats; experiment: Prepulse inhibition test; format: in vivo
[5] = tested on: MK-801-induced hyperactivity in mice; experiment: MK-801-induced hyperactivity; format: in vivo; settings: mice, 2.5, 5, or 10 mg/kg
Experimental: The locomotor activity was recorded individually for each animal in locomotor activity cages with modifications. […] After 30 min, all of the mice were injected i.p. with MK-801 at 0.35 mg/kg and once again placed in the same cage. From then on, the ambulation scores were counted for 60 min. All of the groups were compared with the MK-801 control group. The experiment also included a control group treated with NaCl only.

choice accuracy in rats = experiment: Spatial delayed alternation test; format: in vivo
naïve mice = experiment: Spontaneous locomotor activity of naïve mice; format: in vivo; settings: compound alone
[6] = tested on: MK-801-induced disruptions of social interactions in mice; experiment: Social interaction test (MK-801-induced deficits); format: in vivo; settings: all tested doses
Experimental: The method was adapted from de Moura Linck et al., 2008 [57], and Woźniak et al., 2016 [58]. After the 2-day habituation trial (10 min/day), a pair of mice was placed in the open field for 5 min. The social interactions between the two mice were determined based on the total time spent participating in social behavior, such as genital investigation, sniffing, chasing, and fighting each other. The total number of social episodes was also measured. The test was video-recorded and viewed by a trained observer.

| Structure (SMILES) | DOI-induced head twitches [1] | MK-801-induced disruptions in social interaction [1] | cognitive impairment in novel object recognition [1] | prepulse inhibition (PPI) [1] | activity in animal models of schizophrenia ([1]; mGlu7 NAMs) | IC50 (CYP1A2) | MK-801-induced decrease in the recognition index (NOR) ([2]; mice, 1, 2.5, and 5 mg/kg) | recognition index, compound alone (NOR) ([2]; naïve mice) | DOI-induced head twitches in mGlu7 knockout (KO) mice ([3]; mGlu7 KO mice) | number of DOI-induced head shakes ([3]; mice, 2.5, 5, and 10 mg/kg i.p., vs control group) | MK-801-induced decrease of prepulse inhibition ([4]; any of the investigated doses) | disturbance of the PPI response, compound alone ([4]; highest investigated dose 10 mg/kg) | MK-801-induced increase in locomotor activity [5] | choice accuracy, compound administered alone (choice accuracy in rats) | MK-801-induced disruptions in the number of alternations (choice accuracy in rats; highest dose tested 5 mg/kg) | spontaneous locomotor activity (naïve mice) | MK-801-induced disruption in the interaction time [6] | MK-801-induced disruption in the number of episodes [6] |
| --- | --- | --- | --- | --- | --- | --- | --- | --- | --- | --- | --- | --- | --- | --- | --- | --- | --- | --- |
| CCc1nc2c(o1)CC(c1ccc(C)cc1C)CC2=O (stereo not shown) [ADX71743, reference compound] | active | active | active | active | antipsychotic activity |  |  |  |  |  |  |  |  |  |  |  |  |  |
| Cn1c(-c2ccccc2Cl)nc2ccc(-c3ccccc3)cc2c1=O [ALX-065, 2-(2-chlorophenyl)-3-methyl-6-phenylquinazolin-4(3H)-one] |  |  |  |  |  | 1.1 to 3.3 µM |  |  |  |  |  |  |  |  |  |  |  |  |
| COc1cccc(-c2ccc3nc(-c4ccccc4Cl)n(C)c(=O)c3c2)c1OC [ALX-171, 2-(2-chlorophenyl)-6-(2,3-dimethoxyphenyl)-3-methylquinazolin-4(3H)-one] |  |  |  |  |  | 3.3 to 10 µM | ameliorated | no significant impact | had no further effect | significantly attenuated | no effect | ~ 50% | not able to reverse | no negative effect | reversed | no effect | reversed | reversed |
